Data on 14 compounds can be found in patent publication US20230019236A1, “PROTEIN TYROSINE PHOSPHATASE INHIBITORS AND METHODS OF USE THEREOF” (Calico Life Sciences LLC, priority 2019, published 2023).

Like-named read-outs stand apart in the source and are kept apart here.

As usually defined, the IC50 is the concentration at which inhibition is half-maximal.

Test [1] concerns the target T1, His tagged full-length PTP1B protein (Homo sapiens, UniProt P18031).
T1 construct: made in house
T1 sequence (P18031 with tags, fused parts or gaps): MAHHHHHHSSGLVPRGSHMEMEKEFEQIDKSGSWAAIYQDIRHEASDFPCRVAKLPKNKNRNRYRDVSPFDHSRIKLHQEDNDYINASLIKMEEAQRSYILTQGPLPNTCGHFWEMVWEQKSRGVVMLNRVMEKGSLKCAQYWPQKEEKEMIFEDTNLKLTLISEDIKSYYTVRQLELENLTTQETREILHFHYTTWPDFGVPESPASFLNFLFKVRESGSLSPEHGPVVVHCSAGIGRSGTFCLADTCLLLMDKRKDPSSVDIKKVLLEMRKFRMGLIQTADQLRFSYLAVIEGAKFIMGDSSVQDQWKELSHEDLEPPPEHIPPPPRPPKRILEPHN
Briefly: Mobility Shift Assay (MSA) used to determine potency of PTP1B inhibitors. It is filed as biochemical. The conditions noted are these: Table 2. On the procedure: The enzymatic assay used to determine activity is a mobility shift assay using a LabChip EZ Reader by Caliper Life Sciences. The enzymatic reaction was carried out in assay buffer (50 mM HEPES pH 7.5, 1 mM EGTA, 10 mM EDTA, 0.01% Tween® 20, and 2 mM DTT). […] The enzyme (at 0.5 nM) was incubated with compound for 10 minutes at room temperature. […] The % inhibition was then used to calculate the IC50 values.

Test [2] concerns B16F10 mouse melanoma cells. Put plainly: B16F10 IFNγ-induced cellular growth inhibition assay. It is filed as cell-based. The conditions noted are these: Mus musculus, B16-F10, compound 33 μM, Table 3. As for the experimental part: Example 294: B16F10 IFNγ-Induced Cellular Growth Inhibition Assay
B16F10 mouse melanoma cells (ATCC Cat# CRL-6475, Manassas, Va.) were seeded at a density of 500 cells per well in a 384-well clear bottom plate (Corning Cat#3765, Corning, N.Y.) in 25 μL total volume of DMEM+10% FBS (Sigma Cat# D6429 and Sigma Cat# F4135, St. Louis, MO). Cells were allowed to adhere overnight at 37° C. +5% CO2. On the following day, 12.5 μL of mouse IFNγ (RD systems Cat# 485-MI/CF, Minneapolis, Minn.) was added to half of the plate (columns 13-24) at a concentration of 2 ng/mL for a final assay concentration of 0.5 ng/mL of IFNγ. Media only (12.5 μL of DMEM+10% FBS) was added to the remainder of the plate (columns 1-12). Next, compounds resuspended in DMSO (Sigma Cat# D2650) at 100 mM were diluted in semi-log dilutions in DMSO ranging from 100 mM to 0.001 mM and DMSO only controls were included. The compound/DMSO dilutions were further diluted 1:250 in DMEM+10% FBS, and 12.5 μL of these dilutions were added in triplicates to cells of both treatment arms (with and without IFNγ). Final compound concentrations ranged from 100 μM to 0.001 μM with a final DMSO concentration of 0.1%. Compounds were only dosed in the inner 240 wells, avoiding the outer 2-well perimeter of the plate to minimize edge effects. Finally, the plate was loaded into an IncuCyte® S3 Live Cell Analysis System (Essen Bioscience-Sartorius, Ann Arbor, Mich.) maintained in a 37° C. +5% CO2 incubator, allowed to equilibrate for 2 hours, and imaged every 6 hours for 5 days. Confluence over time for compound dilutions in the presence and absence of IFNγ was measured. Growth inhibition values were obtained when the “DMSO/no IFNγ” control reached confluence >95%. At these time points, the percent growth inhibition of each compound at the indicated concentration was calculated relative to the “DMSO/with IFNγ” control.

Test [3] addresses T2, His tagged PTPN2 (TC45) protein (Homo sapiens, UniProt P17706).
T2 construct: made in house
T2 sequence (P17706 with tags, fused parts or gaps isoform P17706-2): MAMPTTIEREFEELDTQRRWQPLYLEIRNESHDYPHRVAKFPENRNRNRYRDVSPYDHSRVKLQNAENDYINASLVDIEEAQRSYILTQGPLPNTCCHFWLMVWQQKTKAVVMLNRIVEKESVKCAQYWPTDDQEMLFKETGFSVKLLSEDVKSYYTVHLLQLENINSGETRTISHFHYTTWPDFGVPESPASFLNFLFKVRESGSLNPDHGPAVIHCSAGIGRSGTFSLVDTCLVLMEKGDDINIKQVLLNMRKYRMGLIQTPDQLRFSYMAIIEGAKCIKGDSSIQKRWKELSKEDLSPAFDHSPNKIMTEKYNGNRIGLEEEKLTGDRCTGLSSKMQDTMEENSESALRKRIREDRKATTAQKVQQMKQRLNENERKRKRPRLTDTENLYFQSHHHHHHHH
Put plainly: Mobility Shift Assay used to determine potency of PTPN2 inhibitors. It is filed as biochemical. The following applies: Table 2; read-out: PTPN2 MSA IC50. Summed up: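 His-tagged human PTPN2 (TC45), 0.5 nM, preincubated 10 min RT with compound (12-point, 1:3 dilution) in HEPES pH 7.5 buffer with EDTA/DTT; 2 µM OG488-labelled phospho-insulin-receptor peptide added, 10 min RT, then quenched. Dephosphorylation read by microfluidic mobility shift (ex 488/em 530 nm); IC50 from % inhibition.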

Test [4] concerns Pan T cells isolated from C57BL6 splenocytes. Briefly: T cell activation assay (CD25/CD69 flow cytometry). The test is classed as cell-based, mouse. The following applies: with TCR stimulation; Table 5. On the procedure: Example 295: T cell activation and function assays
Pan T cells were isolated from C57BL6 splenocytes using a MACS Pan T cell isolation kit II (Miltenyi Biotec, Auburn, Calif.) according to the manufacturer's instructions. Isolated T cells (200,000 cells/well in a 96 well flat-bottom plate) were cultured in RPMI 1640 supplemented with 10% FBS, […] 2-mercatoethanol, 100 U/mL penicillin, and 100 μg/mL streptomycin, and incubated with the indicated concentration of compound or DMSO in duplicates. After 1 hour, mouse T cell activator CD3/CD28 Dynabeads (ThermoFisher Scientific, Waltham, Mass.) were added at a 1:5 beads to cells ratio to stimulate the T cells for 2 or 3 days as outlined below. T cells with or without compound were incubated in the absence of T cell activator beads (media only) as control.
After 2 days of stimulation, activation status of T cells was assessed by flow cytometry. T cells were first subjected to Zombie Violet™ Fixable Viability dye (BioLegend, San Diego, Calif.) for dead cell exclusion, washed and then stained with BUV805 labeled anti-CD8, APC-R700 labeled anti-CD25 (both from BD Biosciences, San Jose, Calif.) and PE labeled anti-CD69 (BioLegend, San Diego, Calif.) antibodies. After staining, cells were fixed with 2% paraformaldehyde and acquired on a BD LSRFortessa™ X-20 flow cytometer (BD Biosciences, San Jose, Calif.) using BD FACSDiva™ software. Data was analyzed using FlowJo V10 (Flow Jo LLC, Ashland, OR). Dead cells were excluded and frequencies of activated CD8 T cells was reported as the frequency of CD25+ or CD69+ cells within the CD8+ population. The expression level of CD25 and CD69 indicates the activation status of cells on a per cell basis and was evaluated by the mean fluorescence intensities (MFI) of CD25 and CD69.
A general note: Flow cytometry measures light scatter and fluorescence of single cells or particles in a stream.

Setting [5] is: +0.5 ng/mL IFNγ, relative to DMSO/with IFNγ control, read-out: % B16F10 growth inhibition (+0.5 ng/mL IFNγ) @ 33 μM.
Where [6] appears, read: no IFNγ, read-out: % B16F10 growth inhibition (no IFNγ) @ 33 μM.

As for `CC(C)(O)CCCc1ccc2cc(O)c(N3CC(=O)NS3(=O)=O)c(F)c2c1` [Compound 154, 5-[1-fluoro-3-hydroxy-7-(4-hydroxy-4-methylpentyl)naphthalen-2-yl]-1λ^6,2,5-thiadiazolidine-1,1,3-trione], the results for the IC50 in test [1] and in test [3] were 1 to 10 nM and < 1 nM, respectively. For the same compound, the inhibition at 33 µM in test [2] (setting [5]) is 60 to 90%; in test [2] (setting [6]) it was < 25%.
Consider `O=C1CN(c2c(O)cc3ccc(OC(F)F)cc3c2F)S(=O)(=O)N1` [Compound 260, 5-[7-(difluoromethoxy)-1-fluoro-3-hydroxynaphthalen-2-yl]-1λ^6,2,5-thiadiazolidine-1,1,3-trione], for which the IC50 in test [1] was in the range of 10 to 100 nM. Moreover, the “T cell activation and T cell function” value in test [4] is “increased both T cell activation and T cell function”.
For the compound `O=C1CN(c2c(O)cc3ccc(CC4CCN(S(=O)(=O)C5CC5)CC4)cc3c2F)S(=O)(=O)N1` [Compound 257, 5-(7-{[1-(cyclopropanesulfonyl)piperidin-4-yl]methyl}-1-fluoro-3-hydroxynaphthalen-2-yl)-1λ^6,2,5-thiadiazolidine-1,1,3-trione], the concentration for half-maximal inhibition (IC50) lay within 10 to 100 nM in test [1] and 1 to 10 nM in test [3]. The figures for the inhibition at 33 µM in test [2] (setting [5]) and in test [2] (setting [6]) were 25 to 59% and < 25%, respectively.
`CP(C)(=O)N1CC=C(c2ccc3cc(O)c(N4CC(=O)NS4(=O)=O)c(F)c3c2)C1` [Compound 168, 5-{7-[1-(dimethylphosphoryl)-2,5-dihydro-1H-pyrrol-3-yl]-1-fluoro-3-hydroxynaphthalen-2-yl}-1λ^6,2,5-thiadiazolidine-1,1,3-trione]: the IC50 in test [1] is 1 to 10 nM. Moreover, the inhibition at 33 µM in test [2] (setting [5]) was > 90%; in test [2] (setting [6]), < 25%.
In the same order, the values of `CC(C)NC(=O)Oc1ccc2cc(O)c(N3CC(=O)NS3(=O)=O)c(F)c2c1` [Compound 103, 8-fluoro-6-hydroxy-7-(1,1,4-trioxo-1λ^6,2,5-thiadiazolidin-2-yl)naphthalen-2-yl propan-2-ylcarbamate] are 10 to 100 nM, 60 to 90% and < 25%.
As for `CC(C)(C)CCOc1ccc2cc(O)c(N3CC(=O)NS3(=O)=O)c(F)c2c1` [Compound 352, 5-[7-(3,3-dimethylbutoxy)-1-fluoro-3-hydroxynaphthalen-2-yl]-1λ^6,2,5-thiadiazolidine-1,1,3-trione], the IC50 in test [1] and in test [3] was < 1 nM each time.
In the case of `CCCCOc1cc2c(F)c(N3CC(=O)NS3(=O)=O)c(O)cc2cc1O` [Compound 363, 5-(7-butoxy-1-fluoro-3,6-dihydroxynaphthalen-2-yl)-1λ^6,2,5-thiadiazolidine-1,1,3-trione], the IC50 in test [1] and in test [3] was < 1 nM each time.
Turning to `O=C1CN(c2c(O)cc3ccc(OCCC4CCC4)cc3c2F)S(=O)(=O)N1` [Compound 353, 5-[7-(2-cyclobutylethoxy)-1-fluoro-3-hydroxynaphthalen-2-yl]-1λ^6,2,5-thiadiazolidine-1,1,3-trione], the IC50 in test [1] and in test [3] was < 1 nM throughout.
`O=C1CN(c2c(O)cc3cc(O)c(OCCC4CCC4)cc3c2F)S(=O)(=O)N1` [Compound 362, 5-[7-(2-cyclobutylethoxy)-1-fluoro-3,6-dihydroxynaphthalen-2-yl]-1λ^6,2,5-thiadiazolidine-1,1,3-trione]: the IC50 in test [1] and in test [3] was < 1 nM throughout.
For the compound `CCC(O)COc1ccc2cc(O)c(N3CC(=O)NS3(=O)=O)c(F)c2c1` (stereo not shown) [Compound 327, 5-[1-fluoro-3-hydroxy-7-(2-hydroxybutoxy)naphthalen-2-yl]-1λ^6,2,5-thiadiazolidine-1,1,3-trione], the IC50 in test [1] and in test [3] was < 1 nM in each case.
Take `O=C1CN(c2c(O)cc3ccc(NCCCC(F)F)cc3c2F)S(=O)(=O)N1` [Compound 324, 5-{7-[(4,4-difluorobutyl)amino]-1-fluoro-3-hydroxynaphthalen-2-y}-1λ^6,2,5-thiadiazolidine-1,1,3-trione]: the IC50 in test [1] and in test [3] was < 1 nM each time.
Take `NCCCS(=O)(=O)N1CC=C(c2ccc3cc(O)c(N4CC(=O)NS4(=O)=O)c(F)c3c2)C1` [Compound 345, 5-{7-[1-(3-aminopropane-1-sulfonyl)-2,5-dihydro-1H-pyrrol-3-yl]-1-fluoro-3-hydroxynaphthalen-2-yl}-1λ^6,2,5-thiadiazolidine-1,1,3-trione]: the figures for the IC50 in test [1] and in test [3] were 1 to 10 nM and < 1 nM, respectively.
In the same order, the values of `CC(C)(CO)CS(=O)(=O)N1CC=C(c2ccc3cc(O)c(N4CC(=O)NS4(=O)=O)c(F)c3c2)C1` [Compound 344, 5-{1-fluoro-3-hydroxy-7-[1-(3-hydroxy-2,2-dimethylpropane-1-sulfonyl)-2,5-dihydro-1H-pyrrol-3-yl]naphthalen-2-yl}-1λ^6,2,5-thiadiazolidine-1,1,3-trione] are < 1 nM and < 1 nM.
For `CCc1cc2c(F)c(N3CC(=O)NS3(=O)=O)c(O)cc2cc1O` [Compound 358, 5-(7-ethyl-1-fluoro-3,6-dihydroxynaphthalen-2-yl)-1λ^6,2,5-thiadiazolidine-1,1,3-trione], the half-inhibitory concentration (IC50) in test [1] and in test [3] was 1 to 10 nM throughout.
